According to PMC8151276, “An Integrated Approach toward NanoBRET Tracers for Analysis of GPCR Ligand Engagement” (Molecules, 2021):

How the values were obtained:
CCR2 = target: T1, CCR2 (Homo sapiens, UniProt P41597); test: NanoBRET screen HiBiT-CCR2 in HEK293; assay type: binding
T1 construct: purchased Promega (in-house HiBiT-GPCR construct library, NanoBRET)
Method: (§1) Each tracer candidate was screened across the entire library of HiBiT-GPCR constructs using NanoBRET as the detection modality. As depicted in Figure 4A, the specificity of interactions was evaluated through decrease in BRET due to competitive displacement of a bound tracer by excess parental compound. Each tracer was analyzed for binding to each HiBiT-GPCR fusion in the absence and in the presence of competing parental compound. Briefly, HEK293 cells were transfected with HiBiT-GPCR constructs diluted into promoterless DNA to reduce expression and maximize translocation to the cell surface. Each tracer candidate was then screened at concentrations of 1 μM and 0.1 μM across cells expressing these fusions. Cells were treated for 1.5 h with tracer either alone or in the presence of 20 μM competing parental compound (i.e., control). BRET was measured upon addition of purified LgBiT and subsequent complementation with HiBiT genetically fused to a GPCR. The specificity of interactions was assessed through a decrease in BRET signal due to competitive displacement of the bound tracer. To further gauge the robustness of these interactions, the fold response over the control (i.e., BRETtracer/BRETcontrol) was calculated. We chose a 1.5-fold response, which translates to ≥7-fold signal over noise as the minimal threshold required to score an interaction as positive. […]. Below we highlight the screening results obtained for our exemplary fluorescent tracers based on Clozapine, Amitriptyline and AZD1283.
(§2) HiBiT-GPCR DNA constructs were diluted in 10 mM Tris pH 8 to a final concentration of 0.01 μg/μL, arrayed in 96-well plates and stored at −20 °C. For transfection, HEK293 cells were suspended in Opti-MEM (without phenol red) supplemented with 2% fetal bovine serum (Seradigm) and 100 units/mL penicillin–streptomycin (Gibco) at a final concentration of 220,000 cells/mL and dispensed into white 96-well plates at 90 μL/well. Subsequent transfections and screens were carried using an Agilent Bravo Automated Liquid Handling Platform. First, the 96-well HiBiT DNA arrays were diluted 25-fold in Opti-MEM (without serum or phenol red) to a final concentration of 0.0004 μg/μL and 20 μL of the diluted DNAs were transferred into new 96-well plates. Next, promoterless carrier DNA (1 μg/μL) was diluted 25-fold (0.04 μg/μL) and then dispensed into the diluted arrays at 20 μL/well. Following brief mixing, Viafect transfection reagent (Promega) diluted 16-fold into Opti-MEM was dispensed into the plates at 40 μL/well. After mixing by pipetting, plates were incubated for 10 min on the pipetting station deck. The DNA-transfection reagent complexes were then added to plates containing cells. To facilitate the screen, 10 μL of DNA-transfection reagent complexes were added in duplicates to the top 4 and bottom 4 rows, resulting in two identical 48-well arrays per plate. Plates with transfected cells were incubated for 18–20 h at 37 °C/5% CO2. A screen of each tracer across the entire library using two different concentrations requires duplicate plates of transfected cells. Depending on the number of tracers being screened, transfections can be scaled up using the same ratios. The next day, for each tracer, four 20× screening solutions in tracer dilution buffer (Promega) were prepared: two duplicates at final concentration of 20 μM and two duplicates at a final concentration of 2 μM. A competing unmodified compound was added to one of each duplicate at a final concentration of 400 μM. The four resulting solutions were diluted 4-fold in Opti-MEM without serum or phenol red to generate 5× solutions (5 µM and 0.5 µM tracer +/− 100 μM competing compound). To screen the library, a BioTek MultiFlo FX liquid dispenser was used to dispense 22.5 µL of tracer solution to the top 4 rows and 22.5 µL tracer + competing compound solution to the 4 bottom rows. Plates were briefly mixed on an orbital shaker and incubated for 1.5 h at room temperature. […]

OXTR = target: T2, OXTR (Homo sapiens, UniProt P30559); test: NanoBRET screen HiBiT-OXTR in HEK293; assay type: binding
T2 construct: purchased Promega (in-house HiBiT-GPCR construct library, NanoBRET)
T2 sequence (P30559 1-389): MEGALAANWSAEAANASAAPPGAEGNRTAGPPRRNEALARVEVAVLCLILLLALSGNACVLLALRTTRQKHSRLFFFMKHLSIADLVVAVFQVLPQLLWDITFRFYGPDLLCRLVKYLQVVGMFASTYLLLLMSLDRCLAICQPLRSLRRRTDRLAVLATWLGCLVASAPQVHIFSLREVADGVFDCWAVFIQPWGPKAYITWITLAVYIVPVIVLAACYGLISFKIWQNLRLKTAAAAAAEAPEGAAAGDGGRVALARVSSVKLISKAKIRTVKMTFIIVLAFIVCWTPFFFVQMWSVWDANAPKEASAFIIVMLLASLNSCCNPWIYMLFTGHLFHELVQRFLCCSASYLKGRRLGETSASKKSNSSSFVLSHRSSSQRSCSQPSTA
Method: as §1, §2

T1 sequence (P41597 whole entry): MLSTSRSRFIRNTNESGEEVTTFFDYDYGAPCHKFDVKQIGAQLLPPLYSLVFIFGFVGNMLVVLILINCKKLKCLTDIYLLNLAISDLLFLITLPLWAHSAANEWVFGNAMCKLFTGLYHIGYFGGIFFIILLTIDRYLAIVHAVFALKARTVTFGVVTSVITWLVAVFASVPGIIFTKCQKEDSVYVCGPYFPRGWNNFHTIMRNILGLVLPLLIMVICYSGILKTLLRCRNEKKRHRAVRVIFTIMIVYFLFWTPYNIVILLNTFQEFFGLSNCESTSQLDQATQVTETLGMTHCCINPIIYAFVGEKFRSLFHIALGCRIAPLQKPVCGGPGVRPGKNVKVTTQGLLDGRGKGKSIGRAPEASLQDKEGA

| Compound | NanoBRET Fold Response (CCR2; CCR2, 0.1μM tracer) | NanoBRET Fold Response (CCR2; CCR2, 1μM tracer) | NanoBRET Fold Response (OXTR; OXTR, 0.1μM tracer) | NanoBRET Fold Response (OXTR; OXTR, 1μM tracer) | other results |
| --- | --- | --- | --- | --- | --- |
| CN(C)CCC=C1c2ccccc2CCc2ccc(C(=O)NCCNC(=O)CCOCCOCCOCCOCCNC(=O)CCc3ccc4n3[B-](F)(F)[N+]3=C(c5ccc[nH]5)C=CC3=C4)cc21 [Amitriptyline-b-2-NB590] |  |  |  |  | NanoBRET Fold Response (CCR2; tracer at 0.1μM): 0.99; NanoBRET Fold Response (CCR2; tracer at 1μM): 0.89; NanoBRET Fold Response (OXTR; tracer at 0.1μM, listed as amitriptyline-b-2-NB590): 1.08; NanoBRET Fold Response (OXTR; tracer at 1μM, listed as amitriptyline-b-2-NB590): 1.01 |
| O=C(CCOCCOCCOCCOCCNC(=O)CCc1ccc2n1[B-](F)(F)[N+]1=C(c3ccc[nH]3)C=CC1=C2)NCCCN1CCN(C2=Nc3cc(Cl)ccc3Nc3ccccc32)CC1 [Clozapine-a-2-NB590] | 1.06 | 0.73 | 1.03 | 1.01 |  |
| CN1CCN(C2=Nc3cc(Cl)ccc3Nc3ccc(CNC(=O)CCOCCOCCOCCOCCNC(=O)CCc4ccc5n4[B-](F)(F)[N+]4=C(c6ccc[nH]6)C=CC4=C5)cc32)CC1 [Clozapine-b-2-NB590] | 1.01 | 0.93 | 1.05 | 1.03 |  |
| Cc1nc2n(c(=O)c1CCN1CCC(c3noc4cc(F)ccc34)CC1)CCCC2OC(=O)NCCOCCOCCOCCOCCNC(=O)CCc1ccc2n1[B-](F)(F)[N+]1=C(c3ccc[nH]3)C=CC1=C2 (stereo not shown) [Risperidone-2-NB590] |  |  |  |  | NanoBRET Fold Response (CCR2; CCR2, tracer 0.1μM): 1.01; NanoBRET Fold Response (CCR2; CCR2, tracer 1μM): 1.16; NanoBRET Fold Response (OXTR; OXTR, tracer 0.1μM): 0.97; NanoBRET Fold Response (OXTR; OXTR, tracer 1μM): 0.97 |
